Molecules are shown by their SMILES. “And” between values parts separate entries of the source, which are not always exact repeats. Identical values can stand only once.

One may read the IC50 as the concentration that gives 50% inhibition.

Series [1] deals with liver carcinoma (HepG-2). In words: MTT cytotoxicity assay, HepG-2. To be noted: for SI HepG-2: IC50 WI-38 / IC50 HepG-2; for IC50: read-out: IC50 HepG-2, MTT, mean ± SD of three measurements. For orientation: Tetrazolium dyes change colour on reduction, which living cells bring about.
Series [2] deals with HeLa, HepG-2, and MCF-7. In words: MTT cytotoxicity, range over the cancer cell panel. To be noted: read-out: IC50 across HeLa, HepG-2 and MCF-7; range over all examined cancer cell lines.
The subject of series [3] is P. aeruginosa ATCC10145. As to the kind of experiment: Well diffusion inhibition zone, P. aeruginosa. To be noted: Pseudomonas aeruginosa, ATCC10145, read-out: Inhibition zone P. aeruginosa ATCC10145.
Series [4] can be described thus: in vitro. To be noted: human, WI-38 normal lung fibroblast cells.
Series [5] deals with breast carcinoma (MCF-7). As to the kind of experiment: MTT cytotoxicity assay, MCF-7. To be noted: for SI MCF-7: IC50 WI-38 / IC50 MCF-7; for IC50: read-out: IC50 MCF-7, MTT, mean ± SD of three measurements.
Series [6] relates to cervical carcinoma (HeLa). In words: MTT cytotoxicity assay, HeLa. To be noted: for SI HeLa: IC50 WI-38 / IC50 HeLa; for IC50: read-out: IC50 HeLa, MTT, mean ± SD of three measurements.
The subject of series [7] is S. aureus ATCC25923. In words: Well diffusion inhibition zone, S. aureus. To be noted: Staphylococcus aureus, ATCC25923, read-out: Inhibition zone S. aureus ATCC25923. A general note: A growth-free zone around the sample is the usual read-out of agar diffusion tests.
Series [8] has as its system E. faecalis ATCC29212. As to the kind of experiment: Well diffusion inhibition zone, E. faecalis. To be noted: Enterococcus faecalis, ATCC29212, read-out: Inhibition zone E. faecalis ATCC29212.
Series [9] has as its system E.coli ATCC25915. As to the kind of experiment: Well diffusion inhibition zone, E. coli. To be noted: Escherichia coli, ATCC25915, read-out: Inhibition zone E.coli ATCC25915.

In the case of `Cn1c(=O)c2c(-c3ccc(Cl)cc3)c(-c3nn(CCc4nn[nH]n4)c(=S)o3)c(N)nc2n(C)c1=O` [Compound 10, 6-{4-[2-(2H-Tetrazol-5-yl)ethyl]-5-thioxo-4,5-dihydro-1,3,4-oxadiazol-2-yl}-7-amino-5-(4-chlorophenyl)-1,3-dimethylpyrido[2,3-d]pyrimidine-2,4(1H,3H)-dione], in [1], the “SI HepG-2” value amounted to 0.54 and the IC50 amounted to 69.4 ± 3.7 µM. In series [2], the IC50 was above 50 µM. Besides, in series [3], the zone of inhibition at 100 µg/mL came to 6 mm. Half-maximal inhibition in series [4] (IC50 at 48 h) required 37.9 ± 2.4 µM. For the same molecule, in series [5], the “SI MCF-7” value is reported as 0.71 and the IC50 amounted to 53.1 ± 3.1 µM. In addition, in series [6], the “SI HeLa” value turned out to be 0.77 and the IC50 was found to be 48.7 ± 2.8 µM.
As for `O=C(O)c1cn(C2CC2)c2cc(N3CCNCC3)c(F)cc2c1=O` [Ciprofloxacin, reference compound], the zone of inhibition at 50 µg/mL in series [7] worked out at 8 ± 0.15 mm; in [3], 12.3 ± 0.4 mm; in [8], 7.5 mm; in series [9], 10 mm.
As for `Cn1c(=O)c2c(-c3ccc(Cl)cc3)c(C(=O)NC(=S)NN)c(N)nc2n(C)c1=O` [Compound 5, 7-Amino-5-(4-chlorophenyl)-N-(hydrazinecarbonothioyl)-1,3-dimethyl-2,4-dioxo-1,2,3,4-tetrahydropyrido[2,3-d]pyrimidine-6-carboxamide], the IC50 in [1] is above 100 µM; in [2], above 84 µM; in [5], 84.1 ± 4.2 µM; in [6], 89.4 ± 4.6 µM. The molecule further came in with an IC50 at 48 h in series [4] of 35.2 ± 2.2 µM. Further, the “SI MCF-7” value in [5] came to 0.41. For the same molecule, the “SI HeLa” value in series [6] was 0.39.
As to `Cn1c(=O)c2c(-c3ccc(Cl)cc3)c(-c3nnc4sc(S)nn34)c(N)nc2n(C)c1=O` [Compound 15, 7-Amino-5-(4-chlorophenyl)-6-(6-mercapto-[1,2,4]triazolo[3,4-b][1,3,4]thiadiazol-3-yl)-1,3-dimethylpyrido[2,3-d]pyrimidine-2,4(1H,3H)-dione], the “SI HepG-2” value in series [1] is recorded as 0.79. Also, the IC50 in [1] was 51.8 ± 2.9 µM; in series [2], 40 to 52 µM; in series [5], 47.5 ± 2.8 µM; in [6] it was 39.8 ± 2.4 µM. The figures for the zone of inhibition at 100 µg/mL in [3] and in series [9] were 10.3 mm and 7.5 ± 0.15 mm, respectively. The IC50 at 48 h in [4] is 41.2 ± 2.5 µM. Also, the “SI MCF-7” value in series [5] came to 0.86. The “SI HeLa” value in series [6] turned out to be 1.03.
For `Cn1c(=O)c2c(-c3ccc(Cl)cc3)c(-c3nnc(S)n3N)c(N)nc2n(C)c1=O` [Compound 4, 7-Amino-6-(4-amino-5-mercapto-4H-1,2,4-triazol-3-yl)-5-(4-chlorophenyl)-1,3-dimethylpyrido[2,3-d]pyrimidine-2,4(1H,3H)-dione], the “SI HepG-2” value in series [1] is given as 1.99. Further, the IC50 was 23.1 ± 1.6 µM in [1], 14 to 26 µM in series [2], 26.1 ± 1.7 µM in series [5] and 18.9 ± 1.4 µM in series [6]. The zone of inhibition at 100 µg/mL in series [3] turned out to be 6 mm. Besides, the concentration for half-maximal inhibition (IC50) at 48 h in [4] came to 46.1 ± 2.7 µM. The “SI MCF-7” value in series [5] came out at 1.76. The “SI HeLa” value in series [6] was found to be 2.43.
Take `Cc1cc(C)n(C(=O)c2c(N)nc3c(c2-c2ccc(Cl)cc2)c(=O)n(C)c(=O)n3C)n1` [Compound 6, 7-Amino-5-(4-chlorophenyl)-6-(3,5-dimethyl-1H-pyrazole-1-carbonyl)-1,3-dimethylpyrido[2,3-d]pyrimidine-2,4(1H,3H)-dione]: the “SI HepG-2” value in [1] is listed as 1.29. In addition, the IC50 in [1] is 29.7 ± 1.8 µM; in series [2], 24 to 32 µM; in [5], 32 ± 1.9 µM; in [6], 24.8 ± 1.6 µM. The molecule also had an IC50 at 48 h in series [4] of 38.4 ± 2.6 µM. Further, the “SI MCF-7” value in series [5] is reported as 1.20. Further, the “SI HeLa” value in series [6] was 1.54.
Regarding `Cn1c(=O)c2c(-c3ccc(Cl)cc3)c(-c3nn(CCC#N)c(=S)o3)c(N)nc2n(C)c1=O` [Compound 9, 3-{5-[7-Amino-5-(4-chlorophenyl)-1,3-dimethyl-2,4-dioxo-1,2,3,4-tetrahydropyrido [2,3-d]pyrimidin-6-yl]-2-thioxo-1,3,4-oxadiazol-3(2H)-yl}propanenitrile], the IC50 in series [1] was 88.6 ± 4.4 µM; in series [2], > 50 µM and 62 to 88 µM; in [5], 67.8 ± 3.6 µM; in [6], 62.7 ± 3.5 µM. Also, the zone of inhibition at 100 µg/mL in [3] is 7.6 mm. In [4], this molecule returned an IC50 at 48 h above 100 µM.
For the molecule `Cn1c(=O)c2c(-c3ccc(Cl)cc3)c(C3=NN=C(N)C3C#N)c(N)nc2n(C)c1=O` (stereo not drawn) [Compound 8, 3-Amino-5-[7-amino-5-(4-chlorophenyl)-1,3-dimethyl-2,4-dioxo-1,2,3,4-tetrahydropyrido[2,3-d]pyrimidin-6-yl]-4H-pyrazole-4-carbonitrile], the “SI HepG-2” value in series [1] was 0.30. Further, the IC50 in series [1] is 82.8 ± 4.1 µM; in series [2], > 50 µM and 62 to 88 µM; in [5], 79.3 ± 3.9 µM; in series [6], 71.4 ± 3.8 µM. Also, the IC50 at 48 h in [4] came to 25.2 ± 1.8 µM. In addition, in [5], the “SI MCF-7” value is 0.31. For the same molecule, the “SI HeLa” value in series [6] amounted to 0.35.
As for `Cn1c(=O)c2c(-c3ccc(Cl)cc3)c(C3=NN=C4N=CNC(=O)C43)c(N)nc2n(C)c1=O` (stereo not drawn) [Compound 11, 7-Amino-5-(4-chlorophenyl)-1,3-dimethyl-6-(4-oxo-3a,5-dihydro-4H-pyrazolo [3,4-d]pyrimidin-3-yl)pyrido[2,3-d]pyrimidine-2,4(1H,3H)-dione], the IC50 is 73.2 ± 3.8 µM in [1], above 50 µM in [2], 60.6 ± 3.5 µM in series [5] and 56.4 ± 3.2 µM in [6]. Moreover, the zone of inhibition at 100 µg/mL in [3] turned out to be 8.6 mm; in [9], 2 ± 0.1 mm. Further, the IC50 at 48 h in series [4] was above 100 µM.
For `Cn1c(=O)c2c(-c3ccc(Cl)cc3)c(-c3nnc(S)o3)c(N)nc2n(C)c1=O` [Compound 7, 7-Amino-5-(4-chlorophenyl)-6-(5-mercapto-1,3,4-oxadiazol-2-yl)-1,3-dimethylpyrido[2,3-d]pyrimidine-2,4(1H,3H)-dione], in series [1], the “SI HepG-2” value turned out to be 1.52 and the half-maximal inhibitory concentration (IC50) worked out at 17.5 ± 1.3 µM. The IC50 in [2] lay in the range of 9.72 to 17.5 µM. Besides, 26.8 ± 1.8 µM corresponded to half-maximal inhibition in series [4] (IC50 at 48 h). In series [5], the “SI MCF-7” value is given as 2.30 and the IC50 is 11.6 ± 0.9 µM. For the same molecule, in [6], the “SI HeLa” value was 2.75 and the IC50 amounted to 9.72 ± 0.9 µM.
Regarding `C#Cc1cccc(Nc2ncnc3cc(OCCOC)c(OCCOC)cc23)c1` [Erlotinib, erlotinib, reference compound], the results for the IC50 in series [1], in [5] and in series [6] were 9.18 ± 0.6 µM, 7.26 ± 0.3 µM and 8.04 ± 0.5 µM, respectively. It took 78.3 ± 3.9 µM to reach half-maximal inhibition in series [4] (IC50 at 48 h).
For `Cn1c(=O)c2c(-c3ccc(Cl)cc3)c(-c3nnc4n3N=C(Cl)CS4)c(N)nc2n(C)c1=O` [Compound 14, 7-Amino-6-(6-chloro-7H-[1,2,4]triazolo [3,4-b][1,3,4]thiadiazin-3-yl)-5-(4-chlorophenyl)-1,3-dimethylpyrido[2,3-d]pyrimidine-2,4(1H,3H)-dione], in series [1], the “SI HepG-2” value was determined as 0.23. The IC50 in series [1] is 93.7 ± 4.8 µM; in series [2] it was > 50 µM and 69 to 94 µM; in series [5], 75.1 ± 3.8 µM; in series [6], 68.7 ± 3.6 µM. Also, the zone of inhibition at 100 µg/mL in series [7] came to 3 ± 0.05 mm; in [3], 9.5 mm; in series [9], 8.15 ± 0.3 mm. This molecule also showed an IC50 at 48 h in [4] of 22.5 ± 1.6 µM. Besides, the “SI MCF-7” value in series [5] is reported as 0.29. Also, in series [6], the “SI HeLa” value was found to be 0.32.
Take `Cn1c(=O)c2c(-c3ccc(Cl)cc3)c(C(=O)Nc3n[nH]cc3NN)c(N)nc2n(C)c1=O` [Compound 3, 7-Amino-5-(4-chlorophenyl)-N-(4-hydrazinyl-1H-pyrazol-3-yl)-1,3-dimethyl-2,4-dioxo-1,2,3,4-tetrahydropyrido[2,3-d]pyrimidine-6-carboxamide]: in [1], the “SI HepG-2” value is listed as 2.46 and the IC50 stood at 21.4 ± 1.5 µM. Moreover, the IC50 in series [2] was 14 to 26 µM. Also, the midpoint of inhibition in [4], the IC50 at 48 h, lay at 52.8 ± 2.9 µM. Further, in [5], the “SI MCF-7” value is 2.70 and the IC50 worked out at 19.5 ± 1.3 µM. For the same molecule, in [6], the “SI HeLa” value was 3.73 and the IC50 was found to be 14.1 ± 1.2 µM.
